Measured values: patent publication US9487529B2, “Macrocyclic compounds as ALK, FAK and JAK2 inhibitors” (Cephalon, Inc., priority 2011, dated 2016)
Counter-ions that a name gives are not always drawn. Like-named read-outs stand apart in the source and are kept apart here.

Experiments:
Assay type in all cases: biochemical
recombinant human FAK = molecular target: T1, recombinant human FAK (Homo sapiens, UniProt Q05397); assay: FAK Enzyme Assay (TRF detection); conditions: 10 μM ATP; average of two or more determinations; class symbols
T1 construct: purchased Invitrogen PV3832; host or cells: baculovirus expression system
T1 sequence (Q05397 whole entry): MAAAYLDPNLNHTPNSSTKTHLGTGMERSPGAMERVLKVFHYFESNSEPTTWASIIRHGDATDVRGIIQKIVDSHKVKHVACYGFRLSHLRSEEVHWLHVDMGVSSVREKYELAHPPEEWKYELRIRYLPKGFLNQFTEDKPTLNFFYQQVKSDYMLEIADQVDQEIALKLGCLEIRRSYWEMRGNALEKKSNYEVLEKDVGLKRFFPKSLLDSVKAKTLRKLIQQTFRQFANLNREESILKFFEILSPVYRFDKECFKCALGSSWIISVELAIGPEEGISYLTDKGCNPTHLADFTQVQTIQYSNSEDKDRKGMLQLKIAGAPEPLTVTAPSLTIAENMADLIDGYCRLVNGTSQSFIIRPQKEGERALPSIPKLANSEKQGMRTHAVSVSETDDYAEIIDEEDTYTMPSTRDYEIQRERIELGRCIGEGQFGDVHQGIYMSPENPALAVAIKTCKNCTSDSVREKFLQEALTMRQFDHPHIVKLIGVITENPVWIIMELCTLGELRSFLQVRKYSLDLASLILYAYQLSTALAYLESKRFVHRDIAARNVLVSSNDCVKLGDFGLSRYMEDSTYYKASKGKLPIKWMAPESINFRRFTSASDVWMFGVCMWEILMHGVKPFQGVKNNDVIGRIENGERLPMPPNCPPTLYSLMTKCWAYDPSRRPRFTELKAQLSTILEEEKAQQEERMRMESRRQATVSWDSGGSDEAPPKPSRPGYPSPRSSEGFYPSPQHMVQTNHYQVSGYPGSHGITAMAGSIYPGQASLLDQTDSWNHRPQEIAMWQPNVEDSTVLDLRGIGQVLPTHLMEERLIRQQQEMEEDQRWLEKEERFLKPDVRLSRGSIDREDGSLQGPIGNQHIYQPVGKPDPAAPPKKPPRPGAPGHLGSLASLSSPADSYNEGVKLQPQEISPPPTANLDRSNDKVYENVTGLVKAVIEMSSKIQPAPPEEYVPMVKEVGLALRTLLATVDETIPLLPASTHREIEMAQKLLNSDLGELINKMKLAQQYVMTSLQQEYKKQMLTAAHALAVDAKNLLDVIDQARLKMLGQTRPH
Description: Example compounds were tested for their ability to inhibit the kinase activity of baculovirus-expressed recombinant human FAK using the TRF detection system as described above for JAK2. IC50 runs were performed in 96-well Costar high binding plates (#3922). The plates were coated first with 100 μL/well of 10 μg/mL neutravidin in TBS at 37° C. for 2 h, followed by 100 μL/well of 1 μg/mL 15-mer peptide substrate (biotinyl-amino-hexanoyl-EQEDEPEGDYFEWLE-amide) at 37° C. for another hour. The FAK assay mixture (total volume=100 μL/well) consisting of 20 mM HEPES, pH 7.2, 10 μM ATP, 5 mM MgCl2, 0.5 mM DTT, 0.1% BSA, and test compound (diluted in DMSO; 2.5% DMSO final in assay) was then added to the assay plate. Enzyme (10 ng/mL FAK, Invitrogen #PV3832) was added and the reaction was allowed to proceed at room temperature for 30 minutes. Detection of the phosphorylated product was performed by adding 100 μL/well of Eu—N1 labeled PY100 antibody (diluted 1:75000 in antibody dilution buffer). Samples were incubated at room temperature for 1 hour, followed by addition of 100 μL enhancement solution. Plates were agitated for 10 minutes and fluorescence of the resulting solution measured using the PerkinElmer EnVision™ 2102 (or 2104) multi-label plate reader.
(§1) Data analysis was performed using ActivityBase (IDBS, Guilford, UK). IC50 values were calculated by plotting percent inhibition versus log10 of the concentration of compound and fitting to the nonlinear regression sigmoidal dose-response (variable slope) equation in XLFit (IDBS, Guilford, UK).

[1] = molecular target: T2, baculovirus-expressed JAK2 (Homo sapiens, UniProt O60674); assay: JAK2 Kinase Assay (TRF detection); conditions: 0.2 μM ATP; average of two or more determinations; class symbols
T2 construct: host or cells: baculovirus expression system
T2 sequence (O60674 whole entry): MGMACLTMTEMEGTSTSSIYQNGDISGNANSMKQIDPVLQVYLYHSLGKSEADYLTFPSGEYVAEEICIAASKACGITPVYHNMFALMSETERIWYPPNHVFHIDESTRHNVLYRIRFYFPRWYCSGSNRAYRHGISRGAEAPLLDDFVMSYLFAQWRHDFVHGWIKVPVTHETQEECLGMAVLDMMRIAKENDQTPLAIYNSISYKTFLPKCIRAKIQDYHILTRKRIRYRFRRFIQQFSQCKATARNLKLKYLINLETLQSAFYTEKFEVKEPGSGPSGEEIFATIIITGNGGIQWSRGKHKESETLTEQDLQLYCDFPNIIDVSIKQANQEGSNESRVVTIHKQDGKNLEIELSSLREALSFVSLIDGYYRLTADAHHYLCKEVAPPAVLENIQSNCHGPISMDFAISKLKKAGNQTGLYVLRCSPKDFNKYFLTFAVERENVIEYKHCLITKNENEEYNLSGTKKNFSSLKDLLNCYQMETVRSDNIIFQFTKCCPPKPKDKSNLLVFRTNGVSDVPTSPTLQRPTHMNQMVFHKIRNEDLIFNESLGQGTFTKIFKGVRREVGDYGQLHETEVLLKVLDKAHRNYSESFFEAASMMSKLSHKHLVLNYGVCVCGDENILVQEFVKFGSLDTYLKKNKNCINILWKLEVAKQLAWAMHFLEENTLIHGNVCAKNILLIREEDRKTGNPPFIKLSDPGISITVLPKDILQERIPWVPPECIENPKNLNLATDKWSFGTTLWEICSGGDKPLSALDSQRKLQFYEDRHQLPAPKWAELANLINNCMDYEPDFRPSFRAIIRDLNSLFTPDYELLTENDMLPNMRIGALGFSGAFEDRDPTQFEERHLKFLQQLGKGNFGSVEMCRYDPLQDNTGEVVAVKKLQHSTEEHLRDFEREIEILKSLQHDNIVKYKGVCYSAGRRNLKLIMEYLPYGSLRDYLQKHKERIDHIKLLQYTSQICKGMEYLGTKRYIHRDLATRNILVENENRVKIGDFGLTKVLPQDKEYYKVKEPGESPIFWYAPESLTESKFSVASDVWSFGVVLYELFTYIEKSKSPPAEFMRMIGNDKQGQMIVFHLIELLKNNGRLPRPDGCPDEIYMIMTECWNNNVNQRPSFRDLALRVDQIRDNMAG
Description: Compounds were tested for their ability to inhibit the kinase activity of baculovirus-expressed JAK2 using the TRF detection system. IC50 runs were conducted in 96-well Costar high binding plates (Corning Costar #3922, Corning, N.Y.). The plates were coated first with 100 μL/well of 10 μg/mL Neutravidin (Pierce #31000, Rockford, Ill.) in TBS at 37° C. for 2 hours, followed by 100 μL/well of 1 μg/mL 15-mer peptide substrate (biotinyl-amino-hexanoyl-EQEDEPEGDYFEWLE-amide, Infinity Biotech Research and Resource, Aston, Pa.) at 37° C. for another hour. The JAK2 assay mixture (total volume=100 μL/well) consisting of 20 mM HEPES, pH 7.2, 0.2 μM ATP, 1 mM MnCl2, 0.1% BSA, and test compound (diluted in DMSO; 2.5% DMSO final in assay) was then added to the assay plate. Enzyme (15 ng/ml JAK2) was added and the reaction was allowed to proceed at room temperature for 20 minutes. Detection of the phosphorylated product was performed by adding 100 μL/well of Eu—N1 labeled PY100 antibody (PerkinElmer Life Sciences #AD0041, Boston, Mass.). Incubation at the room temperature then proceeded for 1 hour, followed by addition of 100 μl enhancement solution (PerkinElmer Life Sciences #1244-105, Boston, Mass.). The plate was gently agitated and after thirty minutes, the fluorescence of the resulting solution was measured using the PerkinElmer EnVision™ 2102 (or 2104) multi-label plate reader.
as §1

[2] = molecular target: T3, baculovirus-expressed ALK (Homo sapiens, UniProt Q9UM73); assay: ALK Kinase Assay (ELISA/TRF); conditions: 1 μM ATP (Km level); average of two or more determinations; class symbols
T3 construct: host or cells: baculovirus expression system
T3 sequence (Q9UM73 19-1620): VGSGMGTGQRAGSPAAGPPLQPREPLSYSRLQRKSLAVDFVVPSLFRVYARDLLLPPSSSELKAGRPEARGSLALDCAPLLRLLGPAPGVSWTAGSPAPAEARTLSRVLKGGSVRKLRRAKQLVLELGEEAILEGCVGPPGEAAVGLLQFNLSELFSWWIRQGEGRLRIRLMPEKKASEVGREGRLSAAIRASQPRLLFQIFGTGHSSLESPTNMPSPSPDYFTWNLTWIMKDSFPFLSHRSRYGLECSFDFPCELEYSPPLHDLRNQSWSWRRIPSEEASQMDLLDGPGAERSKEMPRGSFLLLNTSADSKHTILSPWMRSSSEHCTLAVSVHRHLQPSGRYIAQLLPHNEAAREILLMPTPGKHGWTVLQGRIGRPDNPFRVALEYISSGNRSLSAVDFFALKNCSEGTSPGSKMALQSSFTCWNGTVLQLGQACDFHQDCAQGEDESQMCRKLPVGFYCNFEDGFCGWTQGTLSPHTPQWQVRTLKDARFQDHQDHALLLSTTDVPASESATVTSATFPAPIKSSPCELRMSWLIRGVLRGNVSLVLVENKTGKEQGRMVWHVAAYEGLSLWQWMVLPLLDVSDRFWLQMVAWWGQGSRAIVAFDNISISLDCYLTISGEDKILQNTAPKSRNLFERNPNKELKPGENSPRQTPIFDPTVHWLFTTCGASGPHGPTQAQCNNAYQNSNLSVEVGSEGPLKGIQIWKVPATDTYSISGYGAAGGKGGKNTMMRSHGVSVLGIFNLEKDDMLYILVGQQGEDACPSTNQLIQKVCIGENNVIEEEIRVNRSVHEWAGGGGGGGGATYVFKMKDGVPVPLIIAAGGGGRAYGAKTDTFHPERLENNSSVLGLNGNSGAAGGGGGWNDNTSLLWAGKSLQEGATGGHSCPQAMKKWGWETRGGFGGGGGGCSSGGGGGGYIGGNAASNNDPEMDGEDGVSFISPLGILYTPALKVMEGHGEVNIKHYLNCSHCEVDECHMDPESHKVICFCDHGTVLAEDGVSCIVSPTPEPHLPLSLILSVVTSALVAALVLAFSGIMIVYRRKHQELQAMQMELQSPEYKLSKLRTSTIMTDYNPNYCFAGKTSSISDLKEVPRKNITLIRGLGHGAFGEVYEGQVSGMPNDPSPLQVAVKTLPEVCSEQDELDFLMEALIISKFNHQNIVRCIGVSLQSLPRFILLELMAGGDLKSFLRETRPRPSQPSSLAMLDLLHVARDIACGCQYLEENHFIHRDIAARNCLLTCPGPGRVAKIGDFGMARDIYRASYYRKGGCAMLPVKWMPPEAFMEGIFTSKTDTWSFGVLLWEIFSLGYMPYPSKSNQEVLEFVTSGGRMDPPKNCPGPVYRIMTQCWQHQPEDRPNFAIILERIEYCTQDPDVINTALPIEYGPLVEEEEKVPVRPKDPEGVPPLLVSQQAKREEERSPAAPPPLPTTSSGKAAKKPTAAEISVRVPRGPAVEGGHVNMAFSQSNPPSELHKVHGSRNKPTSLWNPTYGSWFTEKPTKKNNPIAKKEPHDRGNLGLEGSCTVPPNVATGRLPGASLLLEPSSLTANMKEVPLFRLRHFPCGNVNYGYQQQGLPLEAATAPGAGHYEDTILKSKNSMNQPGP
Description: Briefly, each 96-well plate was coated with 100 μL/well of 10 μg/mL substrate (GST-PLC-γ) in Tris-buffered saline (TBS). […] The reaction was initiated by adding enzyme (30 ng/mL ALK) and was allowed to proceed at 37° C. for 15 minutes. Detection of the phosphorylated product was performed by adding 100 μL/well of Eu—N1 labeled PT66 antibody (Perkin Elmer #AD0041). […] Data analysis was performed using ActivityBase (IDBS, Guilford, UK). IC50 values were calculated by plotting percent inhibition versus log10 of the concentration of compound and fitting to the nonlinear regression sigmoidal dose-response (variable slope) equation in XLFit (IDBS, Guilford, UK).

[3] = molecular target: T4, human insulin receptor cytoplasmic domain (βIRCD) (Homo sapiens, UniProt P06213); assay: Insulin Receptor Kinase Assay (TRF); conditions: 20 μM ATP, read-out: IR IC50
T4 construct: human insulin receptor cytoplasmic domain (βIRCD); host or cells: baculovirus expression system
T4 sequence (P06213 980-1382 limits assumed): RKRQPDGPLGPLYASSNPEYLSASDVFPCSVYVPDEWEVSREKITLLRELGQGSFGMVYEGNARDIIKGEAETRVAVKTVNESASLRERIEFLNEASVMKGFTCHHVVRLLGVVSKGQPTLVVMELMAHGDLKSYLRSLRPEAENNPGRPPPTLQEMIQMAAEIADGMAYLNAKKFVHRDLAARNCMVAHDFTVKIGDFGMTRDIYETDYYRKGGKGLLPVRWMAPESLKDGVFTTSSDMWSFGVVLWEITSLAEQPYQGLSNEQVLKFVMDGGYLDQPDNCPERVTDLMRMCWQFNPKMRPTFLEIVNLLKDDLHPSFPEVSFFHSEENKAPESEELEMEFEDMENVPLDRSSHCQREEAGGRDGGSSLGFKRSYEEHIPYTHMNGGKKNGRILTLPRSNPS
Description: Example compounds were tested for their ability to inhibit the kinase activity of baculovirus-expressed human insulin receptor cytoplasmic domain (βIRCD) using the TRF assay as described above for ALK. Phosphorylation of the substrate, recombinant GST-PLC-γ, was detected with a europium-labeled anti-phosphotyrosine antibody and measured by TRF. Each 96-well plate (Greiner#655074) was coated with 100 μL/well of 20 μg/mL substrate solution in TBS. The IR assay mixture (total volume=100 μL/well) consisting of 20 mM HEPES (pH 7.2), 20 μM ATP, 5 mM MnCl2, 0.1% BSA, and test compound (diluted in DMSO; 2.5% DMSO final in assay) was added to the assay plates. Enzyme (20 ng/mL βIRCD) was added and the reaction was allowed to proceed at room temperature for 20 minutes. Detection of the phosphorylated product was performed by adding 100 μL/well of Eu—N1 labeled PY100 antibody (PerkinElmer#AD0160; diluted 1:10,000 in TBS-T containing 0.25% BSA). Incubation at 37° C. for 1 hour was followed by addition of 50 μL enhancement solution (Wallace#1244-105). Plates were agitated for 10 minutes and the fluorescence was measured using the PerkinElmer EnVision™ 2102 or 2104 multi-label plate reader.
as §1

[4] = average of two or more determinations, class symbols

Row | SMILES | IC50 (recombinant human FAK) | IC50 [1] | IC50 [2] | IC50 [3, 4] | IC50 ([3]; given as numeric bound)
1 | CN1CCN(c2ccc3cc2/C=C\c2ccc(S(C)(=O)=O)c(c2)Nc2nc(ncc2Cl)N3)CC1 [Example 18, (14Z)-6-Chloro-10-(methanesulfonyl)-17-(4-methylpiperazin-1-yl)-2,4,8,22-tetraazatetracyclo[14.3.1.1^3,7.1^9,13]docosa-1(20),3(22),4,6,9(21),10,12,14,16,18-decaene Trifluoroacetate (1:1)] | 10 to 100 nM | 10 to 100 nM | 101 to 1000 nM |  | 
2 | CN1CCN(c2ccc3cc2CCc2cccc(c2)Nc2nc(ncc2Cl)N3)CC1 [Example 3, 6-Chloro-17-(4-methylpiperazin-1-yl)-2,4,8,22-tetraazatetracyclo[14.3.1.1^3,7.1^9,13]docosa-1(20),3(22),4,6,9(21),10,12,16,18-nonaene Trifluoroacetate (1:1)] | 101 to 1000 nM | < 10 nM |  | 101 to 1000 nM | 
3 | CNC(=O)c1ccc2cc1Nc1nc(ncc1Cl)Nc1ccc(N3CCN(C)CC3)c(c1)/C=C\2 [Example 16, (14Z)-6-Chloro-10-(N-methylcarboxamido)-17-(4-methylpiperazin-1-yl)-2,4,8,22-tetraazatetracyclo[14.3.1.1^3,7.1^9,13]docosa-1(20),3(22),4,6,9(21),10,12,14,16,18-decaene] | 101 to 1000 nM | 10 to 100 nM | 101 to 1000 nM |  | 
4 | O=C1Nc2cccc(c2)Nc2ncc(Cl)c(n2)Nc2cccc1c2 [Example 1, 6,13,19-Triaza-4-chloro-7,14^1,3-dibenzena-1^2,4-pyrimidinacyclodocosaph-12-one] | > 10000 nM | 101 to 1000 nM | > 10000 nM |  | 
5 | CN1CCN(c2ccc3cc2[C@H](O)[C@H](O)c2cccc(c2)Nc2nc(ncc2Cl)N3)CC1 [Example 27, (14R,15S)-6-chloro-17-(4-methylpiperazin-1-yl)-2,4,8,22-tetraazatetracyclo[14.3.1.1^3,7.1^9,13]docosa-1(20),3(22),4,6,9(21),10,12,16,18-nonaene-14,15-diol] | 1000 to 10000 nM | 10 to 100 nM |  |  | 
6 | COc1ccc2cc1Nc1nc(ncc1Cl)Nc1ccc(N3CCN(C)CC3)c(c1)CC2 [Example 14, 6-Chloro-10-methoxy-17-(4-methylpiperazin-1-yl)-2,4,8,22-tetraazatetracyclo[14.3.1.1^3,7.1^9,13]docosa-1(20),3(22),4,6,9(21),10,12,16,18-nonaene Trifluoroacetate (1:1)] | 10 to 100 nM | < 10 nM |  | 101 to 1000 nM | 
7 | CN1CCN(c2ccc3cc2/C=C\c2cccc(c2)Nc2nc(ncc2Cl)N3)CC1 [Example 2, (14Z)-6-Chloro-17-(4-methylpiperazin-1-yl)-2,4,8,22-tetraazatetracyclo[14.3.1.1^3,7.1^9,13]docosa-1(20),3(22),4,6,9(21),10,12,14,16,18-decaene] | 101 to 1000 nM | < 10 nM |  | 1000 to 10000 nM | 
8 | Clc1cnc2nc1Nc1cccc(c1)CCc1cc(ccc1OCCN1CCCC1)N2 [Example 23, 6-Chloro-17-[2-(pyrrolidin-1-yl)ethoxy]-2,4,8,22-tetraazatetracyclo[14.3.1.1^3,7.1^9,13]docosa-1(20),3(22),4,6,9(21),10,12,16,18-nonaene Trifluoroacetate (1:1)] | 10 to 100 nM | < 10 nM |  | 101 to 1000 nM | 
9 | COc1cc(N2CCN(C)CC2)c2cc1Nc1ncc(Cl)c(n1)Nc1cccc(c1)CC2 [Example 15, 6-Chloro-17-(4-methylpiperazin-1-yl)-19-methoxy-2,4,8,22-tetraazatetracyclo[14.3.1.1^3,7.1^9,13]docosa-1(20),3(22),4,6,9(21),10,12,16,18-nonaene Trifluoroacetate (1:1)] | 101 to 1000 nM | 10 to 100 nM |  | 101 to 1000 nM | 
10 | CNC(=O)c1ccc2cc1Nc1nc(ncc1Cl)Nc1ccc(N3CCN(C)CC3)c(c1)CC2 [Example 17, 6-Chloro-10-(N-methylcarboxamido)-17-(4-methylpiperazin-1-yl)-2,4,8,22-tetraazatetracyclo[14.3.1.1^3,7.1^9,13]docosa-1(20),3(22),4,6,9(21),10,12,16,18-nonaene Trifluoroacetate (1:1)] | < 10 nM | < 10 nM |  | 101 to 1000 nM | 
11 | COc1ccc2cc1Nc1nc(ncc1Cl)Nc1ccc(N3CCN(C)CC3)c(c1)/C=C\2 [Example 13, (14Z)-6-Chloro-10-methoxy-17-(4-methylpiperazin-1-yl)-2,4,8,22-tetraazatetracyclo[14.3.1.1^3,7.1^9,13]docosa-1(20),3(22),4,6,9(21),10,12,14,16,18-decaene] | 101 to 1000 nM | 10 to 100 nM |  |  | > 3000 nM
12 | COc1cc(N2CCN(C)CC2)c2cc1Nc1ncc(Cl)c(n1)Nc1cc(ccc1S(=O)(=O)C(C)C)CC2 [Example 6, 6-Chloro-10-(propane-2-sulfonyl)-17-(4-methylpiperazin-1-yl)-19-methoxy-2,4,8,22-tetraazatetracyclo[14.3.1.1^3,7.1^9,13]docosa-1(20),3(22),4,6,9(21),10,12,16,18-nonaene Trifluoroacetate (1:1)] | < 10 nM | 101 to 1000 nM |  | 10 to 100 nM | 
13 | COc1cc(N2CCN(C)CC2)c2cc1Nc1ncc(Cl)c(n1)Nc1cc(ccc1N(C)S(C)(=O)=O)CC2 [Example 5, 6-Chloro-10-(2-methanesulfonyl-methyl-amino)-17-(4-methylpiperazin-1-yl)-19-methoxy-2,4,8,22-tetraazatetracyclo[14.3.1.1^3,7.1^9,13]docosa-1(20),3(22),4,6,9(21),10,12,16,18-nonaene Trifluoroacetate (1:1)] | < 10 nM | 10 to 100 nM |  | 10 to 100 nM | 
14 | CN1CCN(c2ccc3cc2CCc2ccc(N(C)S(C)(=O)=O)c(c2)Nc2nc(ncc2Cl)N3)CC1 [Example 10, 6-Chloro-10-(2-methanesulfonyl-methyl-amino)-17-(4-methylpiperazin-1-yl)-2,4,8,22-tetraazatetracyclo[14.3.1.1^3,7.1^9,13]docosa-1(20),3(22),4,6,9(21),10,12,16,18-nonaene Trifluoroacetate (1:1)] | < 10 nM | < 10 nM |  | 101 to 1000 nM | 
